Test results from ChEMBL document CHEMBL3044875, “Synthesis and antimicrobial activity of some bisoctahydroxanthene-1,8-dione derivatives” (2011).

Tests used:
Format in all cases: functional
Pseudomonas aeruginosa = assay: Antibacterial activity against Pseudomonas aeruginosa ATCC 27853 at 10 ug/disk after 24 hr by disk-diffusion method; conditions: ATCC 27853, 24 h, read-out: DIZ
Proteus vulgaris = assay: Antibacterial activity against Proteus vulgaris NRRL-B-123 at 10 ug/disk after 24 hr by disk diffusion method; conditions: NRRL-B-123, 24 h, read-out: DIZ
Nocardia = assay: Antibacterial activity against Nocardia canis at 10 ug/disk after 24 hr by disk diffusion method; conditions: read-out: DIZ
Bacillus cereus = assay: Antibacterial activity against Bacillus cereus NRRL 3711 at 10 ug/disk after 24 hr by disk diffusion method; conditions: NRRL 3711, 24 h, read-out: DIZ
[1] = test system: Staphylococcus epidermidis; assay: Antibacterial activity against Staphylococcus epidermidis ATCC 12228 at 10 ug/disk after 24 hr by disk diffusion method; conditions: ATCC 12228, 24 h, read-out: DIZ
Staphylococcus aureus = assay: Antibacterial activity against Staphylococcus aureus ATCC 25923 at 10 ug/disc after 24 hr by disk diffusion method; conditions: ATCC 25923, 24 h, read-out: DIZ
Escherichia coli = assay: Antibacterial activity against Escherichia coli ATCC 25922 at 10 ug/disk after 24 hr by disk-diffusion method; conditions: ATCC 25922, 24 h, read-out: DIZ

Structure (SMILES): CN(C)[C@@H]1C(O)=C(C(N)=O)C(=O)[C@@]2(O)C(O)=C3C(=O)c4c(O)cccc4[C@@](C)(O)[C@H]3C[C@@H]12 [TETRACYCLINE]
- zone of inhibition at 10 µg/disc (Pseudomonas aeruginosa): 13 mm
- zone of inhibition at 10 µg/disc (Proteus vulgaris): 15 mm
- zone of inhibition at 10 µg/disc (Nocardia): 14 mm
- zone of inhibition at 10 µg/disc (Bacillus cereus): 28 mm
- zone of inhibition at 10 µg/disc [1]: 15 mm
- zone of inhibition at 10 µg/disc (Staphylococcus aureus): 40 mm
- zone of inhibition at 10 µg/disc (Escherichia coli): 25 mm
